We go through 26 compounds from patent US20190367516A1 (Bayer Pharma Aktiengesellschaft, priority 2015, published 2019).

The target of this test is T1, human M2 receptor (Homo sapiens, UniProt P08172).
T1 sequence (P08172 1-466): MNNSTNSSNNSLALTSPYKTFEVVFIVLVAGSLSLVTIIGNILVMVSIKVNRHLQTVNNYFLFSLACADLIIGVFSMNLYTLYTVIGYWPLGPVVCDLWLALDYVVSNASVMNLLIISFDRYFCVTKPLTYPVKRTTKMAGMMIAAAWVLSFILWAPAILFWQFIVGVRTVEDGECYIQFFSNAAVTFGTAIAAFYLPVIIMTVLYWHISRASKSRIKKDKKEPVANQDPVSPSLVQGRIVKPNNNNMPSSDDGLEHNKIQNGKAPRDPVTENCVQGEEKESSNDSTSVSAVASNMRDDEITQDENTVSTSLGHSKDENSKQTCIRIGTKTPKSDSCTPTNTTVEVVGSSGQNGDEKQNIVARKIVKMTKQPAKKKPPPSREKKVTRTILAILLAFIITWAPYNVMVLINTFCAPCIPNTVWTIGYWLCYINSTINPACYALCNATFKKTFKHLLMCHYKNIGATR
The settings on record: M2-GIRK1/4 reporter cells; for EC50: Receptor activity EC50, allosteric potency at EC20 acetylcholine, in some cases mean of two or more determinations; for Efficiency: boosting of the acetylcholine effect at EC20 acetylcholine concentration; for Emax: read-out: Efficiency, boosting of the acetylcholine effect at EC20 acetylcholine concentration.

Text: Functional M2-GIRK1/4 Activation Test
The binding of orthosteric agonists (endogenous ligand: acetylcholine) to the M2 receptor leads to receptor activation or a change in conformation of the receptor in the manner of a shift in equilibrium in favour of the active receptor conformation.
The agonist-induced change in conformation of the M2 receptor results in a Gαi protein activation. […] Under physiological conditions, the result is then a selective efflux of potassium from the cell along the electrochemical gradient. […] The extent of hyperpolarization can therefore be regarded as a measure of the activation of the M2 receptor.
The test cell used is a recombinant CHO-DUKX cell line which has been stably transfected with cDNA coding for the human M2 receptor and with cDNA coding for both GIRK1/4 subunits (CHO-DUKX-M2-GIRK). The transmembrane potential, or the relative changes in the transmembrane potential as a function of substance addition or M2 activation, is determined by means of a voltage-sensitive dye (FLIPR Membrane Potential Assay Kit Blue, Molecular Devices # R8034) and the measurement of cell fluorescence using a proprietary fluorescence imaging instrument.
Determination of the Allosteric Potency of the Test Substances (EC50 Value)
The sowing medium consisted of MEM alpha medium (supplemented with 5% FCS, 2% Glutamax, no genticin).
For the particular measurement, the medium was removed and the cells were laden with the voltage-sensitive dye for at least 6 min at room temperature (30 μl of loading buffer per 384-well). This was followed, in a first measurement, by the determination of the fluorescence for the resting transmembrane potential for a period of 5 sec. Thereafter, 10 μl in each case of the test substances diluted in loading buffer were added, followed by a second measurement to determine the transmembrane potential for a period of 50 sec. Finally, the cells were admixed with 10 μl of agonist solution (acetylcholine dissolved in loading buffer). Acetylcholine was used at the concentration corresponding to the EC20, which had been determined in a preliminary test. The M2-mediated GIRK1/4 activation or hyperpolarization was then monitored in a third measurement over a period of 60 sec. The EC50 value (degree of allosteric potency of test compound) and the efficiency (measure of the boosting of the acetylcholine effect at an EC20 acetylcholine concentration) were determined with the aid of a 4-parameter logistic function (Hill function).

What is called EC50 is the midpoint of the concentration-response curve. Consider `CC(NC(=O)c1cn(-c2c(F)cc(F)cc2F)c2nc(N3C[C@@H](O)CC3=O)ccc2c1=O)C(F)(F)C(F)(F)F` (single isomer, unassigned) [Example 531], for which the EC50 is 9 nM and the Efficiency is reported as 97.0%.

For the compound `O=C(NC(c1ccccc1Cl)C(F)(F)F)c1cn(-c2c(F)cc(F)cc2F)c2nc(N3C[C@@H](O)CC3=O)ccc2c1=O` (single isomer, unassigned) [Example 533], the response was half-maximal at 24 nM (EC50) and the Emax was 100%.

The compound `O=C(NC(c1ccccc1Cl)C(F)(F)F)c1cn(-c2c(F)cc(F)cc2F)c2nc(N3C[C@@H](O)CC3=O)ccc2c1=O` (single isomer, unassigned) [Example 534] displayed a 50% effective concentration (EC50) of 6 nM and an Efficiency of 100.0%.

On to `O=C(N[C@@H](C1CC1)C(F)(F)F)c1cn(-c2c(F)cc(F)cc2Cl)c2nc(N3C[C@@H](O)[C@H](O)C3)ccc2c1=O` (single isomer, unassigned) [Example 547], for which the half-maximal effective concentration (EC50) was determined as 120 nM and the Emax was 90%.

Take `CCC(NC(=O)c1cn(-c2ccc(F)cc2F)c2nc(N3C[C@@H](O)CC3=O)ccc2c1=O)C(F)(F)C(F)(F)F` (single isomer, unassigned) [Example 558]: the response was half-maximal at 22 nM (EC50) and the Efficiency turned out to be 100.0%.

For `O=C(NC(c1ccccc1Cl)C(F)(F)F)c1cn(-c2c(F)cc(F)cc2F)c2nc(N3CCNC3=O)ccc2c1=O` (single isomer, unassigned) [Example 564, N-[1-(2-Chlorophenyl)-2,2,2-trifluoroethyl]-4-oxo-7-(2-oxoimidazolidin-1-yl)-1-(2,4,6-trifluorophenyl)-1,4-dihydro-1,8-naphthyridine-3-carboxamide], the half-maximal effective concentration (EC50) was 42 nM and the Emax amounted to 89%.

With `O=C(NC(c1ccccc1Cl)C(F)(F)F)c1cn(-c2c(F)cc(F)cc2F)c2nc(N3CCNC3=O)ccc2c1=O` (single isomer, unassigned) [Example 565, N-[1-(2-Chlorophenyl)-2,2,2-trifluoroethyl]-4-oxo-7-(2-oxoimidazolidin-1-yl)-1-(2,4,6-trifluorophenyl)-1,4-dihydro-1,8-naphthyridine-3-carboxamide], the midpoint of the response, the EC50, lay at 10 nM.

For the compound `CC[C@H](NC(=O)c1cn(-c2c(F)cc(F)cc2Cl)c2nc(N3C[C@@H](O)[C@H](O)C3)ccc2c1=O)C(F)(F)F` (single isomer, unassigned) [Example 567], the EC50 came out at 140 nM and the Emax was 80%.

On to `CC[C@H](NC(=O)c1cn(-c2c(F)cc(F)cc2Cl)c2nc(N3C[C@@H](O)[C@H](O)C3)ccc2c1=O)C(F)(F)F` (single isomer, unassigned) [Example 568], for which the EC50 came to 11 nM and the Efficiency is 100.0%.

On to `CC(C)(CC(F)(F)F)NC(=O)c1cn(-c2c(F)cc(F)cc2F)c2nc(N3CC(O)C4(CC4)C3)ccc2c1=O` (single isomer, unassigned) [Example 570, 7-[7-Hydroxy-5-azaspiro[2.4]hept-5-yl]-4-oxo-N-(4,4,4-trifluoro-2-methylbutan-2-yl)-1-(2,4,6-trifluorophenyl)-1,4-dihydro-1,8-naphthyridine-3-carboxamide], for which the EC50 is 56 nM and the Emax is 100%.

For `CC(C)(CC(F)(F)F)NC(=O)c1cn(-c2c(F)cc(F)cc2F)c2nc(N3CC(O)C4(CC4)C3)ccc2c1=O` (single isomer, unassigned) [Example 571, 7-[7-Hydroxy-5-azaspiro[2.4]hept-5-yl]-4-oxo-N-(4,4,4-trifluoro-2-methylbutan-2-yl)-1-(2,4,6-trifluorophenyl)-1,4-dihydro-1,8-naphthyridine-3-carboxamide], the EC50 was found to be 12 nM.

`CCC(COC(F)(F)F)NC(=O)c1cn(-c2c(F)cc(F)cc2F)c2nc(N3C[C@@H](O)[C@H](O)C3)ccc2c1=O` (single isomer, unassigned) [Example 577]: the midpoint of the response, the EC50, lay at 20 nM and the Emax worked out at 100%.

In the case of `CO[C@@H]1CN(c2ccc3c(=O)c(C(=O)N[C@@H](C4CC4)C(F)(F)F)cn(-c4c(F)cc(F)cc4F)c3n2)C[C@H]1O` (single isomer, unassigned) [Example 583], the 50% effective concentration (EC50) came out at 19 nM and the Emax is 100%.

Regarding `CO[C@@H]1CN(c2ccc3c(=O)c(C(=O)N[C@@H](C4CC4)C(F)(F)F)cn(-c4c(F)cc(F)cc4F)c3n2)C[C@H]1O` (single isomer, unassigned) [Example 584, N-[(1 S)-1-Cyclopropyl-2,2,2-trifluoroethyl]-7-[trans-3-hydroxy-4-methoxypyrrolidin-1-yl]-4-oxo-1-(2,4,6-trifluorophenyl)-1,4-dihydro-1,8-naphthyridine-3-carboxamide], the concentration for a half-maximal effect (EC50) came out at 16 nM and the Efficiency came out at 98.0%.

`O=C(N[C@@H](C1CC1)C(F)(F)F)c1cn(-c2c(F)cc(F)cc2F)c2nc(N3CC(O)C4(CC4)C3)ccc2c1=O` (single isomer, unassigned) [Example 601]: the EC50 is 73 nM and the Emax came out at 100%.

`O=C(N[C@@H](C1CC1)C(F)(F)F)c1cn(-c2c(F)cc(F)cc2F)c2nc(N3CC(O)C4(CC4)C3)ccc2c1=O` (single isomer, unassigned) [Example 602] showed an EC50 of 23 nM and an Efficiency of 91.5%.

With `O=C(NC(CC(F)(F)F)C(F)(F)F)c1cn(-c2c(F)cc(F)cc2F)c2nc(N3C[C@@H](O)CC3=O)ccc2c1=O` (single isomer, unassigned) [Example 608], the EC50 is 22 nM and the Efficiency came to 100.0%.

`O=C(N[C@@H](C1CC1)C(F)(F)F)c1cn(-c2c(F)cc(F)cc2F)c2nc(N3CC[C@@H](O)[C@H](O)C3)ccc2c1=O` (single isomer, unassigned) [Example 616]: the EC50 turned out to be 37 nM and the Emax is 90.5%.

For the compound `O=C(N[C@@H](C1CC1)C(F)(F)F)c1cn(-c2c(F)cc(F)cc2F)c2nc(N3CC[C@@H](O)[C@H](O)C3)ccc2c1=O` (single isomer, unassigned) [Example 617, N-[(1 S)-1-Cyclopropyl-2,2,2-trifluoroethyl]-7-[trans-3,4-dihydroxypiperidin-1-yl]-4-oxo-1-(2,4,6-trifluorophenyl)-1,4-dihydro-1,8-naphthyridine-3-carboxamide], the response was half-maximal at 96 nM (EC50) and the Efficiency is 98.0%.

Take `CC[C@H](NC(=O)c1cn(-c2c(F)cc(F)cc2F)c2nc(N3CC(O)C4(CC4)C3)ccc2c1=O)C(F)(F)F` (single isomer, unassigned) [Example 620]: the response was half-maximal at 47 nM (EC50) and the Emax turned out to be 100%.

With `CC(NC(=O)c1cn(-c2ccc(F)cc2F)c2nc(N3C[C@@H](O)CC3=O)ccc2c1=O)C(F)(F)C(F)(F)F` (single isomer, unassigned) [Example 623], the concentration giving a half-maximal response (EC50) worked out at 67 nM and the Emax came out at 97%.

The compound `CC(NC(=O)c1cn(-c2ccc(F)cc2F)c2nc(N3C[C@@H](O)CC3=O)ccc2c1=O)C(F)(F)C(F)(F)F` (single isomer, unassigned) [Example 624] yielded a half-maximal effective concentration (EC50) of 140 nM and an Efficiency of 96.5%.

As to `O=C(NC12CC(C1)C2)c1cn(-c2c(F)cc(F)cc2F)c2nc(N3CC(O)C4(CC4)C3)ccc2c1=O` (single isomer, unassigned) [Example 627, N-(Bicyclo[1.1.1]pent-1-yl)-7-[7-hydroxy-5-azaspiro[2.4]hept-5-yl]-4-oxo-1-(2,4,6-trifluorophenyl)-1,4-dihydro-1,8-naphthyridine-3-carboxamide], the EC50 stood at 140 nM and the Emax came to 83.5%.

`O=C(NC12CC(C1)C2)c1cn(-c2c(F)cc(F)cc2F)c2nc(N3CC(O)C4(CC4)C3)ccc2c1=O` (single isomer, unassigned) [Example 628, N-(Bicyclo[1.1.1]pent-1-yl)-7-[7-hydroxy-5-azaspiro[2.4]hept-5-yl]-4-oxo-1-(2,4,6-trifluorophenyl)-1,4-dihydro-1,8-naphthyridine-3-carboxamide] yielded an EC50 of 32 nM.

For the compound `CC1CC(=O)N(c2ccc3c(=O)c(C(=O)NC(C4CC4)C(F)(F)F)cn(-c4c(F)cc(F)cc4F)c3n2)C1` (stereo in doubt) [Example 420, N-[(1R)-1-cyclopropyl-2,2,2-trifluoroethyl]-7-[4-methyl-2-oxopyrrolidin-1-yl]-4-oxo-1-(2,4,6-trifluorophenyl)-1,4-dihydro-1,8-naphthyridine-3-carboxamide], the EC50 stood at 16 nM and the Emax was determined as 97.5%.

For `CC1CN(c2ccc3c(=O)c(C(=O)N[C@@H](C4CC4)C(F)(F)F)cn(-c4c(F)cc(F)cc4F)c3n2)C(=O)O1` (stereo in doubt) [Example 445, N-[(1 S)-1-Cyclopropyl-2,2,2-trifluoroethyl]-7-[(5S)-5-methyl-2-oxo-1,3-oxazolidin-3-yl]-4-oxo-1-(2,4,6-trifluorophenyl)-1,4-dihydro-1,8-naphthyridine-3-carboxamide], the EC50 was found to be 96 nM and the Efficiency amounted to 97.5%.
